# Values quoted from earlier work in patent US8846607B2, “Particles for treatment of pulmonary infection” (President and Fellows of Harvard College, priority 2004, dated 2014).
# Tested on: non-replicating TB
# Details: after one month, non-replicating TB in vitro
substance,measurement,value
capreomycin,log decrease in colony forming units (CFU),one to two
